The NIST ThermoML archive (doi:10.1021/acs.jced.8b00176)

Columns and labels:
[1] = 100 kPa, Liquid; for viscosity: Falling or rolling sphere viscometry; for speed of sound: Frequency=3 MHz, Single path-length method; for mass density: Vibrating tube method
[2] = xn = mol fraction of the nth substance listed; details: 100 kPa, Liquid; for viscosity: Falling or rolling sphere viscometry; for speed of sound: Frequency=3 MHz, Single path-length method; for mass density: Vibrating tube method

CCCCn1cc[n+](C)c1.O=S(=O)([O-])C(F)(F)F [1-butyl-3-methylimidazolium trifluoromethanesulfonate]
[1]
Details | mass density [kg/m3] | speed of sound [m/s] | viscosity [mPa·s]
298.15 K | 1297.46 | 1393.2 | 82.38
303.15 K | 1293.46 | 1382.8 | 66.69
308.15 K | 1289.47 | 1371.7 | 52.86
313.15 K | 1285.47 | 1360.7 | 43.67
318.15 K | 1281.47 | 1349.9 | 36.29
323.15 K | 1277.48 | 1338.8 | 30.57

CC#N [acetonitrile] + CCCCn1cc[n+](C)c1.O=S(=O)([O-])C(F)(F)F
[2], x2 = 0
Details | mass density [kg/m3] | speed of sound [m/s] | viscosity [mPa·s]
298.15 K | 776.714 | 1278.5 | 0.34
303.15 K | 771.289 | 1258.4 | 0.32
308.15 K | 765.833 | 1238.2 | 0.31
313.15 K | 760.339 | 1218 | 0.3
318.15 K | 754.815 | 1197.9 | 0.29
323.15 K | 749.253 | 1177.8 | 0.28

CN(C)C=O [dimethylformamide] + CC#N
[2], x1 = 1
Details | mass density [kg/m3] | speed of sound [m/s] | viscosity [mPa·s]
298.15 K | 943.934 | 1457.1 | 0.81
303.15 K | 939.162 | 1437.8 | 0.77
308.15 K | 934.373 | 1418.5 | 0.72
313.15 K | 929.577 | 1399.2 | 0.69
318.15 K | 924.765 | 1379.9 | 0.65
323.15 K | 919.95 | 1360.7 | 0.62

CN(C)C=O [dimethylformamide]
[1]
Details | mass density [kg/m3] | speed of sound [m/s] | viscosity [mPa·s]
298.15 K | 943.934 | 1457.1 | 0.81
303.15 K | 939.162 | 1437.8 | 0.77
308.15 K | 934.373 | 1418.5 | 0.72
313.15 K | 929.577 | 1399.2 | 0.69
318.15 K | 924.765 | 1379.9 | 0.65
323.15 K | 919.95 | 1360.7 | 0.62

CC#N [acetonitrile]
[1]
Details | mass density [kg/m3] | speed of sound [m/s] | viscosity [mPa·s]
298.15 K | 776.714 | 1278.5 | 0.34
303.15 K | 771.289 | 1258.4 | 0.32
308.15 K | 765.833 | 1238.2 | 0.31
313.15 K | 760.339 | 1218 | 0.3
318.15 K | 754.815 | 1197.9 | 0.29
323.15 K | 749.253 | 1177.8 | 0.28

CN(C)C=O [dimethylformamide] + CCCCn1cc[n+](C)c1.O=S(=O)([O-])C(F)(F)F
[2], x2 = 0
Details | mass density [kg/m3] | speed of sound [m/s] | viscosity [mPa·s]
298.15 K | 943.934 | 1457.1 | 0.81
303.15 K | 939.162 | 1437.8 | 0.77
308.15 K | 934.373 | 1418.5 | 0.72
313.15 K | 929.577 | 1399.2 | 0.69
318.15 K | 924.765 | 1379.9 | 0.65
323.15 K | 919.95 | 1360.7 | 0.62
